Test results: paper PMC10951303, “Macroscopic inhibition of DNA damage repair pathways by targeting AP-2α with LEI110 eradicates hepatocellular carcinoma” (Communications Biology, 2024)

Target: T1, AP-2α (TFAP2A) (Homo sapiens, UniProt P05549)
T1 construct: endogenous full-length protein in intact HEP3B cells; western blot read-out
Assay: cellular thermal shift assay (CETSA), western blot
Assay type: cell-based
Settings: HEP3B cells treated with LEI110 or DMSO for 1 h, then heated 3 min at increasing temperatures

T1 sequence (P05549 whole entry): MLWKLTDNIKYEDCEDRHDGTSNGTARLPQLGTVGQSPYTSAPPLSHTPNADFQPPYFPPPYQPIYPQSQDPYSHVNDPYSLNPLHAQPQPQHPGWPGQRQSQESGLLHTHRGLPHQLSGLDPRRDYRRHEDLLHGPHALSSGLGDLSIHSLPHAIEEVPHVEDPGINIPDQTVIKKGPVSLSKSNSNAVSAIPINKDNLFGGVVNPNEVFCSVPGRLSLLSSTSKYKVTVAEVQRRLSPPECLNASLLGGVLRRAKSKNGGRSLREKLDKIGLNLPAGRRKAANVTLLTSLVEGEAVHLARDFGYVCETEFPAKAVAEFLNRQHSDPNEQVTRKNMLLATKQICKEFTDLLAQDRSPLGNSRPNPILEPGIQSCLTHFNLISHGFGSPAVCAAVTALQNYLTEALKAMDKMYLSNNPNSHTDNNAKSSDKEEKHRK

`O=C(CCCc1ccccc1)C(=O)NCCc1ccc(Oc2ccc(C(F)(F)F)cn2)cc1` [LEI110] was tested, and the “cellular thermal shift assay (CETSA), western blot” value was “the stabilization of AP-2α by LEI110 was observed in the CETSA”.
